Experiment [1] has as its target T1, Met (Homo sapiens (Human), UniProt P08581). The experiment is described as follows: Human Met kinase assay (33P radiometric, KinaseProfiler). As to conditions: 10 μM ATP, read-out: c-Met IC50. In kind it is biochemical. How it is done:
(§1) Kinase activity and compound inhibition were investigated using the ^33P-Phosphoryl transfer radiometric kinase assay, performed using the KinaseProfiler™ service of Eurofins Pharma Discovery Services UK Limited. Dose-response experiments were performed using nine compound concentrations in a 96-well microtiter plate. For each assay, all compounds were prepared to a 50× final assay concentration (50 μM) in 100% DMSO, then diluted in a half-log series, with the final top concentration at 1 μM. This working stock of the compound was added to the assay well as the first component in the reaction, followed by the remaining components as detailed in the following assay protocols below. The positive control wells (100% kinase activity) contain all components of the reaction including 2% DMSO (control for solvent effects), except the compound of interest. Blank wells contain all components of the reaction, with the reference inhibitor, staurosporine. This reference compound was used to abolish kinase activity and generated the 0% kinase activity base-line. IC50 values were calculated by nonlinear regression analysis using the sigmoidal dose-response (variable slope) curve fit on XLFit version 5.3 (ID Business Solutions).
Human Met (residues R974-S1390 with A1209G and V1290L, 3.4 nM) was incubated with 8 mM MOPS pH 7.0, 0.2 mM EDTA, 250 μM KKKGQEEEYVFIE (SEQ ID NO. 45), 1 mM sodium orthovanadate, 5 mM […], 10 mM magnesium acetate, and 10 μM [γ-33P-ATP]. The reaction was initiated by the addition of the Mg/ATP mix. After incubation for 40 minutes at room temperature, the reaction was stopped by the addition of phosphoric acid to a concentration of 0.5%. A reaction aliquot of 10 μL was then spotted onto a P30 filtermat and washed four times for 4 minutes in 0.425% phosphoric acid and once in methanol prior to drying and scintillation counting. Incorporated 33P was measured using the Wallac Microbeta scintillation counter (Perkin Elmer).

Experiment [2] has as its target T2, Mer (Homo sapiens (Human), UniProt Q12866). The experiment is described as follows: Human Mer kinase assay (33P radiometric, KinaseProfiler). In kind it is biochemical. Particulars: 10 μM ATP. The protocol: as §1
Target sequence in this assay (Q12866 557-882): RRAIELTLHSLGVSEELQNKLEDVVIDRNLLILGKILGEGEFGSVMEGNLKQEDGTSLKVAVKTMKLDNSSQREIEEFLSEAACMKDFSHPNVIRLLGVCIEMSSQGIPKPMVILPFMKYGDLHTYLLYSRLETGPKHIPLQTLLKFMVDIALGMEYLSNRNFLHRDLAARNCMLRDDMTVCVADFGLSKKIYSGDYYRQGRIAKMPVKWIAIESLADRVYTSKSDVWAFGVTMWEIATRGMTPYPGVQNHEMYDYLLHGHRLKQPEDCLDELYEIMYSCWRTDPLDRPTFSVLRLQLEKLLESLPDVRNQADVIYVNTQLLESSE
Human Mer (residues R557-E882 with H628Q and R794A, 0.7 nM) was incubated with 8 mM MOPS pH 7.0, 0.2 mM EDTA, 30 mM NaCl, 250 μM GGMEDIYFEFMGGKKK (SEQ ID NO. 44), 10 mM magnesium acetate, and 10 μM [γ-^33P-ATP]. The reaction was initiated by the addition of the Mg/ATP mix. After incubation for 40 minutes at room temperature, the reaction was stopped by the addition of phosphoric acid to a concentration of 0.5%. A reaction aliquot of 10 μL was then spotted onto a P30 filtermat and washed four times for 4 minutes in 0.425% phosphoric acid and once in methanol prior to drying and scintillation counting. Incorporated ^33P was measured using the Wallac Microbeta scintillation counter (Perkin Elmer).

The target of a further experiment is Human Axl (Homo sapiens (Human), UniProt P30530, Q764R). The experiment is described as follows: Human AXL kinase assay (33P radiometric, KinaseProfiler). In kind it is biochemical. As to conditions: 10 μM ATP. How it is done:
as §1
Human Axl (residues H473-A894 with Q764R, 161 nM) was incubated with 8 mM MOPS pH 7.0, 0.2 mM EDTA, 250 μM KKSRGDYMTMQIG (SEQ ID NO. 43), 10 mM magnesium acetate and 10 μM [γ-33P-ATP]. The reaction was initiated by the addition of the Mg/ATP mix. After incubation for 40 minutes at room temperature, the reaction was stopped by the addition of phosphoric acid to a concentration of 0.5%. A reaction aliquot of 10 μL was then spotted onto a P30 filtermat and washed four times for 4 minutes in 0.425% phosphoric acid and once in methanol prior to drying and scintillation counting. Incorporated ^33P was measured using the Wallac Microbeta scintillation counter (Perkin Elmer).

The next experiment deals with AXL (Homo sapiens (Human), UniProt P30530). The experiment can be described thus: AXL autophosphorylation ELISA in A-172 cells. Format: cell-based. As to conditions: cellular, Gas6-stimulated, phospho-AXL ELISA. In outline: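 A-172 glioblastoma cells, serum-starved 24 h, took compounds for 1 h (8-point curve, 0.3% DMSO) before 15 min stimulation with 1 μg/mL recombinant human Gas6. Lysate phospho-AXL measured by ELISA against a phospho-AXL standard, normalized to DMSO (100%) and reference inhibitor (0%); IC50 from 4-parameter logistic fit.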
AXL, sequence (P30530 26-894): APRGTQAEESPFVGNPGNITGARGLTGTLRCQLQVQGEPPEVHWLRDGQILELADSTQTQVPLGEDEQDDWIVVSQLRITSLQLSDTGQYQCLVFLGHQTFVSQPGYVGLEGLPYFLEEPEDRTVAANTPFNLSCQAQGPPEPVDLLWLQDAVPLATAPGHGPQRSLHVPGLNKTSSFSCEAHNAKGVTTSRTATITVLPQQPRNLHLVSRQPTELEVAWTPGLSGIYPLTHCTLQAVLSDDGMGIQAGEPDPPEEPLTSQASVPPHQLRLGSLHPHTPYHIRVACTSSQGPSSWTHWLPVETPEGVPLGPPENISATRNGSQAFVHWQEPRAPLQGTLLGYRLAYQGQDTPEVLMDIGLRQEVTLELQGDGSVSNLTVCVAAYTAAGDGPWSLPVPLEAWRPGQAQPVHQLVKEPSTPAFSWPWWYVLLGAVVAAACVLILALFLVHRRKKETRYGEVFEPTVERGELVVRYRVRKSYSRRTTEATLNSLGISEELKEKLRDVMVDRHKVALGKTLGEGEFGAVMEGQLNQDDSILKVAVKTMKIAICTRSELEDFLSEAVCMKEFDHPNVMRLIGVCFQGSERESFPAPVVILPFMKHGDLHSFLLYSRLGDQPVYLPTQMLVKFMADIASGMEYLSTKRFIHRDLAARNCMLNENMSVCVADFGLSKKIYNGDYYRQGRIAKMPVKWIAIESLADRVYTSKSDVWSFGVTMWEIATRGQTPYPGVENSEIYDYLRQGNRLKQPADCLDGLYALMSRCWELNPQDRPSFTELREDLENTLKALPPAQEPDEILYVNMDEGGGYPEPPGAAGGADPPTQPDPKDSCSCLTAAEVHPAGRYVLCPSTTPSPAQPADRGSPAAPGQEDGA

A further experiment concerns the target KDR (Homo sapiens (Human), UniProt P35968). The experiment can be described thus: KDR autophosphorylation ELISA in HUVEC cells. Format: cell-based. As to conditions: cellular, VEGF165-stimulated, phospho-KDR ELISA. In outline: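 Read-out: phospho-KDR ELISA on cell lysates, quantified against a phospho-KDR standard, normalised to VEGF-stimulated DMSO (100%) and unstimulated (0%) wells, IC50 by 4-parameter fit. Cells were 24 h serum-starved HUVEC given compound for 1 h, then 100 ng/mL VEGF165 for 5 min.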
(In general: ELISA stands for enzyme-linked immunosorbent assay.)

Experiment [3] addresses T1, Met. The experiment can be described thus: Met autophosphorylation ELISA in PC-3 cells. As to conditions: cellular, HGF-stimulated, phospho-Met ELISA, read-out: c-Met IC50. In kind it is cell-based. In short, it runs like this: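 PC-3 cells serum-starved 3 h were treated 1 h with an 8-point compound series (0.3% DMSO), then stimulated 10 min with 100 ng/mL human HGF. Phospho-Met (panTyr) in lysates was measured by sandwich ELISA against DMSO (100%) and reference-inhibitor (0%) controls, and IC50 came from a 4-parameter logistic fit.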

Experiment [4] has as its target T2, Mer. The experiment is described as follows: Mer autophosphorylation ELISA in transient transfected 293A cells. Format: cell-based. As to conditions: cellular, MERTK-transfected 293A cells, phospho-Mer ELISA. In outline:
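293A cells transiently transfected with human MERTK DNA, then treated 1 h with 8-point compound dilutions in serum-free medium (0.3% DMSO). Phospho-Mer in lysates quantified by sandwich ELISA against phospho-Mer standard; normalised to DMSO (100%) and reference inhibitor (0%), IC50 from 4-parameter logistic fit.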
Target sequence in this assay (Q12866 21-999): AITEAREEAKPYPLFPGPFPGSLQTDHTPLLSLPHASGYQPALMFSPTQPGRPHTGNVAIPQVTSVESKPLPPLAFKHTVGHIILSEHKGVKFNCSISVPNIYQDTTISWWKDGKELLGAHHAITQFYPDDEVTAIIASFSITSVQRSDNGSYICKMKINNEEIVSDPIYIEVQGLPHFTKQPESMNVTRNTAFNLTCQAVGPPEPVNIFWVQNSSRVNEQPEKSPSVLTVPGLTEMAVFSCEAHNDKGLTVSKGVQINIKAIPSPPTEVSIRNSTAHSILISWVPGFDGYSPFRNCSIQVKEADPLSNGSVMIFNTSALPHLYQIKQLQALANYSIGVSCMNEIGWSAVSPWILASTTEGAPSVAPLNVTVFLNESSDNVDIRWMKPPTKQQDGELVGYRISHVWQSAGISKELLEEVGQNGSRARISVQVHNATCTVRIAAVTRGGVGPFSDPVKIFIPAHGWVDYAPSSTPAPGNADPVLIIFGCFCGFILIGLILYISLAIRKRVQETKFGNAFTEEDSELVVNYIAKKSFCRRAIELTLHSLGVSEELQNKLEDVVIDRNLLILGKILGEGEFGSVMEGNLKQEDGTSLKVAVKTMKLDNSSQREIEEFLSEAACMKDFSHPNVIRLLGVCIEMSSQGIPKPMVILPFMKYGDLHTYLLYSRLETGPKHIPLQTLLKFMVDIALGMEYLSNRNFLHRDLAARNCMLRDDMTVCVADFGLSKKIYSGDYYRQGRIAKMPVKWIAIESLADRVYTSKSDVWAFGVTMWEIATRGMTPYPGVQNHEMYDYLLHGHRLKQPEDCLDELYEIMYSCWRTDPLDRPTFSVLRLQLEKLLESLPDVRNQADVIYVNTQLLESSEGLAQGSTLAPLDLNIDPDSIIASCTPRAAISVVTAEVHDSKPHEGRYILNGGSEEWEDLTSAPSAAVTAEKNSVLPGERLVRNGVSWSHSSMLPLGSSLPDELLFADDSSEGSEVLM

In general, IC50 refers to the concentration that gives 50% inhibition.

KDR, sequence (P35968 20-1356): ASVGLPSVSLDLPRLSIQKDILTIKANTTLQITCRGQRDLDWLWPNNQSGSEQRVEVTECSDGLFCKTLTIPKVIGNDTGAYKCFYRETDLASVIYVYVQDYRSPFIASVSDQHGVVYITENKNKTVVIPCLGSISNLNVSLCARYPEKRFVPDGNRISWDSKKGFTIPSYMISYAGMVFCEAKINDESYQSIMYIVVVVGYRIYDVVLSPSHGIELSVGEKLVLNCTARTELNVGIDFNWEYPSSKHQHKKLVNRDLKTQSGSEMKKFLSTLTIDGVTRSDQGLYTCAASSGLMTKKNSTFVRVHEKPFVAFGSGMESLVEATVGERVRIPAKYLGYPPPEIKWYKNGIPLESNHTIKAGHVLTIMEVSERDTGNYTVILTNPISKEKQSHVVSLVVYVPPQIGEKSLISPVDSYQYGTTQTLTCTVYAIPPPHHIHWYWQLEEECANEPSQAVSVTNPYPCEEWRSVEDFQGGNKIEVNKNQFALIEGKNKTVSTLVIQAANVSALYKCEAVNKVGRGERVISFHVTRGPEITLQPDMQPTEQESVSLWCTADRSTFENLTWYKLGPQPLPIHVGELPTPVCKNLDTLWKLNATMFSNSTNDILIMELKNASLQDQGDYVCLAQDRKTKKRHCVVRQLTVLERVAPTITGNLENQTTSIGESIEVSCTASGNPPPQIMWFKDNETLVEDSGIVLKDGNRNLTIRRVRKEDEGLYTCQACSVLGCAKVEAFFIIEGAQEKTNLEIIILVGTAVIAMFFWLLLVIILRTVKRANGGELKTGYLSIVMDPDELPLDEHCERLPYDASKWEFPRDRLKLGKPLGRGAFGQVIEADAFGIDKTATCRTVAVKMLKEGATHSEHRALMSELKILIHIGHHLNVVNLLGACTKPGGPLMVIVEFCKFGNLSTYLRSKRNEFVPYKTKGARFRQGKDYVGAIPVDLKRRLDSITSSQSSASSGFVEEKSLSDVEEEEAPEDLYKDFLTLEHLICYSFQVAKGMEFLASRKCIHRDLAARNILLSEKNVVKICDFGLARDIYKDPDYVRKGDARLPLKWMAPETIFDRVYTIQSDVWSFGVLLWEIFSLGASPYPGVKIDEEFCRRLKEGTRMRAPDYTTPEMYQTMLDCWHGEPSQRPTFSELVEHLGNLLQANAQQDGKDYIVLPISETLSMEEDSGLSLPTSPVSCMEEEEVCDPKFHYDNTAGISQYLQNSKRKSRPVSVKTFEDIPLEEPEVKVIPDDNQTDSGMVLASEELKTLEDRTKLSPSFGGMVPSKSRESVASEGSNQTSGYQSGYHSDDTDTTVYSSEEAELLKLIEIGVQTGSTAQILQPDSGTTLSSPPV
Human Axl, sequence (P30530 473-894 Q764R): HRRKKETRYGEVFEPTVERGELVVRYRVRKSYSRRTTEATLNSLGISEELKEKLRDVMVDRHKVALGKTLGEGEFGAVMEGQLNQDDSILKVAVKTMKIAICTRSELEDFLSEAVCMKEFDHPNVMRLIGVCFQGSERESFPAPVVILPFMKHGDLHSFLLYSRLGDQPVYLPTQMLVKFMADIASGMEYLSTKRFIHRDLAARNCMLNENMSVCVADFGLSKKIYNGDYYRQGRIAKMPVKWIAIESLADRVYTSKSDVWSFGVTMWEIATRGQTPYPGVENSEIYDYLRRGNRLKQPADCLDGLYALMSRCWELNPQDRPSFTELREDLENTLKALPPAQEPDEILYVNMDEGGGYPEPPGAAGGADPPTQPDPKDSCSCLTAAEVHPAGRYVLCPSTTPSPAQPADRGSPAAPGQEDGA

On to `COc1cc2nccc(Oc3ncc(NC(=O)C4(C(=O)Nc5ccc(F)cc5)CC4)cc3Cl)c2cc1C(=O)O` [Compound 14, 4-[3-Chloro-5-[[1-[(4-fluorophenyl)carbamoyl]cyclopropanecarbonyl]amino]pyridin-2-yl]oxy-7-methoxyquinoline-6-carboxylic acid], for which the IC50 is 10 to 100 nM at Met [1]; 100 to 1000 nM against Mer [2]; 100 to 1000 nM against Human Axl; above 300 nM against AXL; above 300 nM on KDR.
As for `COc1cc2nccc(Oc3ccc(NC(=O)C4(C(=O)Nc5ccc(F)cc5)CC4)cn3)c2cc1C(=O)O` [Compound 13, 4-[5-[[1-[(4-Fluorophenyl)carbamoyl]cyclopropanecarbonyl]-amino]pyridin-2-yl]oxy-7-methoxyquinoline-6-carboxylic acid], the IC50 on Met [1], against Mer [2] and at Human Axl was 100 to 1000 nM in each case.
On to `COc1nc2c(Oc3ncc(NC(=O)C4(C(=O)Nc5ccc(F)cc5)CC4)cc3F)ccnc2cc1OCCN1CCOCC1` [Compound 123, 1-N′-[5-Fluoro-6-[[6-methoxy-7-(2-morpholin-4-ylethoxy)-1,5-naphthyridin-4-yl]oxy]pyridin-3-yl]-1-N-(4-fluorophenyl)cyclopropane-1,1-dicarboxamide], for which the IC50 on Met [3] was 10 to 100 nM; at AXL, 10 to 100 nM; at Mer [4], 10 to 100 nM; on KDR, above 300 nM.

The values are drawn from patent US11673897B2, “Compounds for the treatment of kinase-dependent disorders” (Exelixis, Inc., priority 2018, dated 2023).
